Data reported in BindingDB's records for doi:10.1021/jm950640q (Sankyo, 1997).

experiment: Inhibiting Platelet activating factor receptor by radioreceptor binding assay using rabbit platelets and [3H]-PAF

Point of comparison: `CCC(=O)OC[C@H]1[C@H]2CC[C@@H](C)[C@]1(C)CC/C(C)=C/CC[C@@]1(C)O[C@@H]1[C@@H]2O` [Propionic acid (E)-(1R,2R,3R,5R,12S,13R,16S)-2-hydroxy-5,9,12,13-tetramethyl-4-oxa-tricyclo[10.3.1.0*3,5*]hexadec-8-en-16-ylmethyl ester], IC50 340 nM. Against it:
- C/C1=C\CC[C@@]2(C)O[C@@H]2C(=O)[C@@H]2CC[C@@H](C)[C@](C)(CC1)[C@H]2C=O [(E)-(1R,3S,5R,12S,13R,16S)-5,9,12,13-Tetramethyl-2-oxo-4-oxa-tricyclo[10.3.1.0*3,5*]hexadec-8-ene-16-carbaldehyde] — 2.8-fold lower, 120 nM
- C/C1=C\CC[C@@]2(C)O[C@@H]2C(=O)[C@@H]2CC[C@@H](C)[C@](C)(CC1)[C@H]2COc1ccon1 [(E)-(1R,3S,5R,12S,13R,16S)-16-(Isoxazol-3-yloxymethyl)-5,9,12,13-tetramethyl-4-oxa-tricyclo[10.3.1.0*3,5*]hexadec-8-en-2-one] — 6.8-fold lower, 50 nM
- C/C1=C\CC[C@@]2(C)O[C@@H]2C(=O)[C@@H]2CC[C@@H](C)[C@](C)(CC1)[C@H]2CO [(E)-(1R,3S,5R,12S,13R,16S)-16-Hydroxymethyl-5,9,12,13-tetramethyl-4-oxa-tricyclo[10.3.1.0*3,5*]hexadec-8-en-2-one] — 3.8-fold higher, 1300 nM
- CC(=O)OC[C@H]1[C@H]2CC[C@@H](C)[C@]1(C)CC/C(C)=C/CC[C@@]1(C)O[C@@H]1[C@@H]2O [Acetic acid (E)-(1R,2R,3R,5R,12S,13R,16S)-2-hydroxy-5,9,12,13-tetramethyl-4-oxa-tricyclo[10.3.1.0*3,5*]hexadec-8-en-16-ylmethyl ester] — 4.2-fold lower, 80 nM
- CC(=O)OC[C@H]1[C@H]2CC[C@@H](C)[C@]1(C)CC/C(C)=C/CC[C@@]1(C)O[C@@H]1C2=O [Acetic acid (E)-(1R,3S,5R,12S,13R,16S)-5,9,12,13-tetramethyl-2-oxo-4-oxa-tricyclo[10.3.1.0*3,5*]hexadec-8-en-16-ylmethyl ester] — within 1.5-fold, 410 nM
- COC(=O)OC[C@H]1[C@H]2CC[C@@H](C)[C@]1(C)CC/C(C)=C/CC[C@@]1(C)O[C@@H]1[C@@H]2O [Carbonic acid (E)-(1R,2R,3R,5R,12S,13R,16S)-2-hydroxy-5,9,12,13-tetramethyl-4-oxa-tricyclo[10.3.1.0*3,5*]hexadec-8-en-16-ylmethyl ester methyl ester] — 2.6-fold lower, 130 nM
- COC(=O)OC[C@H]1[C@H]2CC[C@@H](C)[C@]1(C)CC/C(C)=C/CC[C@@]1(C)O[C@@H]1C2=O [Carbonic acid methyl ester (E)-(1R,3S,5R,12S,13R,16S)-5,9,12,13-tetramethyl-2-oxo-4-oxa-tricyclo[10.3.1.0*3,5*]hexadec-8-en-16-ylmethyl ester] — 13-fold lower, 26 nM
- C/C1=C\CC[C@@]2(C)O[C@@H]2C(=O)[C@@H]2CC[C@@H](C)[C@](C)(CC1)[C@H]2COC(=O)Oc1ccccc1 [Carbonic acid phenyl ester (E)-(1R,3S,5R,12S,13R,16S)-5,9,12,13-tetramethyl-2-oxo-4-oxa-tricyclo[10.3.1.0*3,5*]hexadec-8-en-16-ylmethyl ester] — 1.6-fold higher, 550 nM
- C/C1=C\CC[C@@]2(C)O[C@@H]2[C@H](O)[C@@H]2CC[C@@H](C)[C@](C)(CC1)[C@H]2COC(=O)N(C)C [Dimethyl-carbamic acid (E)-(1R,2R,3R,5R,12S,13R,16S)-2-hydroxy-5,9,12,13-tetramethyl-4-oxa-tricyclo[10.3.1.0*3,5*]hexadec-8-en-16-ylmethyl ester] — 1.9-fold lower, 180 nM
- C/C1=C\CC[C@@]2(C)O[C@@H]2C(=O)[C@@H]2CC[C@@H](C)[C@](C)(CC1)[C@H]2COC(=O)N(C)C [Dimethyl-carbamic acid (E)-(1R,3S,5R,12S,13R,16S)-5,9,12,13-tetramethyl-2-oxo-4-oxa-tricyclo[10.3.1.0*3,5*]hexadec-8-en-16-ylmethyl ester] — 1.9-fold lower, 180 nM
